Data published in ChEMBL document CHEMBL1153106, “Thyroid receptor agonists for the treatment of androgenetic alopecia” (Bioorg Med Chem Lett, 2010).
Activity calls are given as the source filed them. The rule behind the calls is not given here.

Columns and labels:
Mus musculus [1] = test: Hair growth stimulatory activity in C3H/HeN mouse treated 5 days a week topically to shaved lower back twice daily for 4 weeks; format: functional
[2] = target: T1, Thyroid hormone receptor alpha (Homo sapiens, UniProt P10827); test: Binding affinity to thyroid receptor alpha
T1 sequence (P10827 whole entry): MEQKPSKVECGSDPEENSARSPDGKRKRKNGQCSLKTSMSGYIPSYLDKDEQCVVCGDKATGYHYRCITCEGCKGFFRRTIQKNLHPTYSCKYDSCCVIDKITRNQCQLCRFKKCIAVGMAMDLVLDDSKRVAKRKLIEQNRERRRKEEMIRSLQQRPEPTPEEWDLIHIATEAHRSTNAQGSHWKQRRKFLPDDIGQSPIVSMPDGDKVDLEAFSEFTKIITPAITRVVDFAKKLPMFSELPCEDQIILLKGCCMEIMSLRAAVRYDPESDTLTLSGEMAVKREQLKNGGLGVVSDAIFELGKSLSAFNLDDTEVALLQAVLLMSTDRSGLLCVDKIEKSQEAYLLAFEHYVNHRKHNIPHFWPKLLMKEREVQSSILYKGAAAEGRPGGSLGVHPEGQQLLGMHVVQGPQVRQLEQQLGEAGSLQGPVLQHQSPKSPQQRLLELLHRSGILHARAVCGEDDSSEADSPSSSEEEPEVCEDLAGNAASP

[3] = target: T2, Thyroid hormone receptor beta (Homo sapiens, UniProt P10828); test: Binding affinity to thyroid receptor beta
T2 sequence (P10828 whole entry): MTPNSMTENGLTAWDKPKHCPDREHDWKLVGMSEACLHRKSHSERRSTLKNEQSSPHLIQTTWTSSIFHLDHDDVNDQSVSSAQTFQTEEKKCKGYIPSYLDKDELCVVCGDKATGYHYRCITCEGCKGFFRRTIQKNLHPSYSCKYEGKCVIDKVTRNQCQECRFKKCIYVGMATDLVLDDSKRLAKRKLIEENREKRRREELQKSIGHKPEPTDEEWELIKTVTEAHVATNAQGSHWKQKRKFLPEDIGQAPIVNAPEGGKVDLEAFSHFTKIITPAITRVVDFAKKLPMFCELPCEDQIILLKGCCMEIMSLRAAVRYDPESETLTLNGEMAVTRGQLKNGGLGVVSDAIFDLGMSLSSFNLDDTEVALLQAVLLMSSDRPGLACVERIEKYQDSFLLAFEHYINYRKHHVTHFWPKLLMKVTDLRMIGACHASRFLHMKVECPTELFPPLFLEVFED

Macaca arctoides = organism: Macaca arctoides; test: Hair growth stimulatory activity in bal stump-tailed monkey model; format: functional
Zone of skin [4] = test: Effect on transepidermal penetration in human cadaver skin assessed as drug distributed to dermis after 40 hrs using Franz diffusion chamber; format: functional
[5] = Intrinsic clearance in human; format: ADME, organism-based; details: not recorded
[6] = Clearance in human blood; format: ADME, organism-based
[7] = Toxicity in bald stump-tailed monkey skin after 4 months; format: tissue-based, Zone of skin; details: macaca arctoides, in vivo, 2922 h
[8] = Metabolic stability in rat liver microsomes; format: ADME, Microsome
Zone of skin [9] = test: Effect on transepidermal penetration in human cadaver skin assessed as total penetration after 40 hrs using Franz diffusion chamber; format: functional
[10] = Drug level in bald stump-tailed monkey model after 2 months; format: ADME, organism-based; details: macaca arctoides, in vivo; read-out: Drug uptake
[11] = Clearance in rat blood; format: ADME, organism-based
[12] = Half life in human hepatocytes; format: ADME, cell-based, Liver, Hepatocyte
Rattus norvegicus = test: Apparent volume of distribution at steady state in rat at 0.5 mg/kg, iv; format: ADME, organism-based; parameters: dose 0.5 mg/kg, route intravenous; details: in vivo
Mus musculus [13] = test: Ratio of drug to minoxidil MED for hair growth stimulatory activity in female C3H/HeN mouse at 1 mg/mL, treated topically to shaved lower back as single dose; format: functional, organism-based
Mus musculus [14] = test: Ratio of drug to minoxidil MED for hair growth stimulatory activity in female C3H/HeN mouse at 0.1 mg/mL, treated topically to shaved lower back as single dose; format: functional, organism-based
[15] = Half life in rat hepatocytes; format: ADME, cell-based, Liver, Hepatocyte
Zone of skin [16] = test: Effect on transepidermal penetration in human cadaver skin assessed as maximal penetration rate after 28 hrs using Franz diffusion chamber; format: functional
[17] = Metabolic stability in […] human liver microsomes; format: ADME, Microsome
[18] = Terminal half life in rat at 0.5 mg/kg, iv; format: ADME, organism-based; parameters: dose 0.5 mg/kg, route intravenous; details: in vivo, read-out: beta t1/2 (converted)
NIH3T3 = test: Phototoxicity in mouse 3T3 cells by neutral red uptake assay; format: cell-based
[19] = Intrinsic clearance in rat; format: ADME, organism-based; details: not recorded
[20] = Plasma clearance in rat at 0.5 mg/kg, iv; format: ADME, organism-based; parameters: dose 0.5 mg/kg, route intravenous
Thyroid hormone receptor = target: T3, Thyroid hormone receptor (Homo sapiens, UniProt P10827+P10828); test: Binding affinity to thyroid hormone receptor in human HepG2 cells
T3 sequence (P10827 whole entry): T1 sequence (P10827 whole entry)
T3 sequence (P10828 whole entry): T2 sequence (P10828 whole entry)

[21] = Drug level in bald stump-tailed monkey model after 4 months; format: ADME, organism-based; details: macaca arctoides, in vivo; read-out: Drug uptake
Zone of skin [22] = test: Effect on transepidermal penetration in human cadaver skin assessed as drug distributed to epidermis after 40 hrs using Franz diffusion chamber; format: functional
[23] = Drug level in bald stump-tailed monkey model after 3 months; format: ADME, organism-based; details: macaca arctoides, in vivo; read-out: Drug uptake

`Cc1cc(NC(=O)CC(=O)O)cc(Cl)c1Oc1ccc(O)c(S(=O)(=O)CC2CCC2)c1` gave an MED (Mus musculus [1]) of 0.1%, a Ki [2] of 2.1 nM and a Ki [3] of 0.5 nM.

`O=C(c1cc(Oc2c(Cl)cc(-n3ncc(=O)[nH]c3=O)cc2Cl)ccc1O)N1CCCCC1` showed an MED (Mus musculus [1]) of 0.1%, a Ki [2] of 20 nM and a Ki [3] of 1 nM.

`Cc1cc(NC(=O)C(=O)O)cc(C)c1Oc1ccc(O)c2c1CCC2` showed an MED (Mus musculus [1]) of 1%, a Ki [2] of 0.7 nM and a Ki [3] of 0.5 nM.

For `Nc1cc(N2CCCCC2)nc(N)[n+]1[O-]` [MINOXIDIL], the MED (Mus musculus [1]) was 2.5% and the MED (Macaca arctoides) was 2%.

`Cc1cc(-n2ncc(=O)[nH]c2=O)cc(C)c1Oc1ccc(O)c(Cc2ccc(F)cc2)c1` showed an MED (Mus musculus [1]) of 0.003%, an Activity (Zone of skin [4]) of 0.58% and a CLint scaled [5] of 29 mL/min/kg. For the same compound, the clearance [6] was 15 mL/min/kg, the Activity [7] was “Non-toxic” and the half-life [8] was 40 min. The Activity (Zone of skin [9]) was 6.17%, the concentration at 1461 h [10] was < 2 ng/mL and the clearance [11] was 51 mL/min/kg. For the same compound, the half-life [12] was 119 min, the Vdss(app) (Rattus norvegicus) was 4.88 L/kg and the Activity (Mus musculus [13]) was “Active”. The Activity (Mus musculus [14]) was “Active”, the half-life [15] was 45 min and the Activity (Zone of skin [16]) was 0.14 microg/cm2/h. The half-life [17] was 39 min, the half-life [18] was 164 min and the Ki [2] was 3 nM. For the same compound, the MED (Macaca arctoides) was 0.1%, the Activity (NIH3T3) was “Non-toxic” and the CLint scaled [19] was 149 mL/min/kg. The clearance [20] was 40 mL/min/kg, the EC50 (Thyroid hormone receptor) was 0.5 nM and the concentration at 2922 h [21] was < 1 ng/mL. The Activity (Zone of skin [22]) was 9.88%, the Ki [3] was 0.4 nM and the concentration at 2191.5 h [23] was < 1 ng/mL.

Compound `O=C(c1cc(Oc2c(Cl)cc(-n3ncc(=O)[nH]c3=O)cc2Cl)ccc1O)N1CCc2ccccc2C1` has an MED (Mus musculus [1]) of 0.1%, a Ki [2] of 126 nM and a Ki [3] of 2 nM.

For `O=c1cnn(-c2cc(Cl)c(Oc3ccc(O)c(Cc4ccc(F)cc4)c3)c(Cl)c2)c(=O)[nH]1`, the MED (Mus musculus [1]) was 0.01%, the Ki [2] was 8 nM and the Ki [3] was 0.51 nM.
